According to patent US20050283841A1, “Inhibition of protein kinase C-related kinase (PRK) as a treatment for cardiac hypertrophy and heart failure” (priority 2004, published 2005):

Key:
PRK [1] = conditions: Kuwahara et al., 1999; Kondoh et al., 1997; not specific for PRK, also block ROCK; cited from earlier work
[2] = Isoproterenol infusion model of pathological cardiac hypertrophy, heart weight to body weight ratio; assay type: in vivo, Sprague-Dawley rats; conditions: isoproterenol 4.8 mg/kg/d, subcutaneous osmotic minipump, 4 days; data not shown
Experimental: (§1) For isoproterenol infusion, nine to ten-week-old male Sprague-Dawley rats were anesthetized via passive inhalation of 2.0% isoflurane. When a level of surgical anesthesia was reached, an osmotic minipump (Alzet model 2001, Alza Corp., Palo Alto Calif.) containing either vehicle (0.1% ascorbic acid in 0.9% NaCl), or isoproterenol (4.8 mg/kg/d) was subcutaneously implanted into the back between the scapulae followed by closure with 3-0 silk sutures. After 4 days of recovery, animals were sacrificed and left ventricular tissue processed for Western blot analysis as described below. Average heart weight to body weight ratios in isoproterenol versus vehicle-infused rats increased 48% (data not shown).

PRK [3] = assay: Western blot analysis of PRK phosphorylation status in left ventricular tissue after isoproterenol infusion; assay type: in vivo; conditions: rat, 4 days of isoproterenol infusion compared to control saline infusion; anti-phospho-PRK Western blot; *P<0.05
Experimental: as §1
Immunoblotting analyses. […] Protein concentration was determined by BCA assay (Pierce), and 20 μg of total protein was resolved by SDS-polyacrylamide gel electrophoresis (PAGE) with gradient gels (4 to 20% polyacrylamide; Invitrogen). […] Film images were then scanned and quantified using a digital image analysis system (Alpha Innotech).
PRK phosphorylation is increased with pathological cardiac hypertrophy in vivo. […] PRK phosphorylation is readily detected by Western analysis employing anti-phospho-PRK antibodies.

C[C@@H](N)[C@H]1CC[C@H](C(=O)Nc2ccncc2)CC1 [Y27632]
PRK inhibition (known inhibitor) (PRK [1]): characterized as PRK inhibitors

CC(C)NCC(O)c1ccc(O)c(O)c1 (stereo not shown) [isoproterenol]
Average heart weight to body weight ratios, increase versus vehicle-infused rats [2]: 48%
PRK phosphorylation (PRK [3]): increased

O=S(=O)(c1cccc2cnccc12)N1CCCNCC1 [Fasudil]
PRK inhibition (known inhibitor) (PRK [1]): characterized as PRK inhibitors
